# Source: a melting point compilation (Tetko et al.; mined from patent text by program, amines drawn as free bases though some values may be those of a salt)
row,Structure (SMILES),melting point
1,Cn1ncc2c1-c1c(Oc3ccc4c(c3)OCO4)sc(C#N)c1CC2,132 to 134 °C
2,O=C1c2ccccc2C(=O)N1Cc1nc(C2CC2)no1,115 °C
3,CC(C)c1ccc(C(=O)C2=C(O)C(=O)N(c3cccn(C)c3=O)C2c2ccc(OC(F)(F)F)cc2)cc1 (stereo unspecified),207 °C
4,COc1ccc2c(c1)CC(CNC(=O)Nc1c(C(C)C)cccc1C(C)C)CC2 (stereo unspecified),171 to 172 °C
5,O=C1COC[C@@H](c2cccc(F)c2)N1,119 to 121 °C
6,CC(C)(C)OC(=O)NCC(CNC(=O)OC(C)(C)C)OS(C)(=O)=O,127 °C
7,COC(=O)[C@@H]1C[C@@H](OS(C)(=O)=O)CN1C(=O)OC(C)(C)C,86 to 87 °C
8,CC1(C)CCC(C(=O)N2CCC[C@H]2C(=O)O)C1SC(=O)c1ccccc1 (stereo partly specified),187 °C
9,CC(C)(OCc1nn(Cc2ccccc2)c2ccc(Cl)cc12)C(=O)O,145 to 147 °C
10,CC(C)(Sc1ccc2c(-c3ccc(Cl)cc3)noc2c1)C(=O)O,176 to 177 °C
11,CCC(=O)Oc1cc(OC)cc(OC)c1C(=O)C=Cc1ccco1,93.6 °C
12,CCOC(=O)C(Cc1ccc(OCCN2CCC(C)(C)c3cc(C(=NO)c4ccccc4)ccc32)cc1)OCC (stereo unspecified),46 to 48 °C
13,CCCS(=O)(=O)c1ccccc1S(N)(=O)=O,122 to 124 °C
14,CCOC(=O)CCC(=O)c1ccc(Cl)cc1O,68 to 69 °C
15,COCCCCCCCCCCCC(N)=O,83.9 to 85.6 °C
16,CC(C)Oc1ccc(-c2nc(-c3ccc(OC(C)C)cc3O)nc(-c3ccc(OC(C)C)cc3O)n2)c(O)c1,122 °C
17,CN(C)S(=O)(=O)c1ccc2ccc3ccccc3c(=O)c2c1,130 to 136 °C
18,O=C(O)c1cccc(Cl)c1C[PH](=O)CO (stereo unspecified),219 to 220 °C
19,CCCNC(=O)c1ccc2c(c1)N(C(C)CN1CCCCCC1)c1ccccc1S2 (racemic),113 °C
20,COc1cccc(N(C(=O)c2ccc(Br)s2)C2CC2)c1,60 °C
21,CC1(C)CC(=O)C2=C(C1)NC1=C(C(=O)CC(C)(C)C1)C2c1cccc(Oc2ccc(Cl)cc2)c1,238 to 239 °C
22,Cc1cc(Sc2ccc([N+](=O)[O-])cc2)cc(Br)n1,124 to 126 °C
23,CCCCN(C1c2cc(OCc3ccccc3)ccc2OC(C)(C)C1O)S(C)(=O)=O (stereo unspecified),159 to 160 °C
24,CCOC(=O)CCCCCn1c(C(=O)O)cc2ccccc21,62 °C

row,Structure (SMILES),melting point
1,O=C(O)c1cccc2nc(OCC(F)(F)F)n(Cc3ccc(-c4ccccc4-c4nnn[nH]4)cc3)c12,204 to 206 °C
2,O=C(O)c1cn(C2CC2)c2cc(N3CCNC(CF)C3)c(F)cc2c1=O (stereo unspecified),202 to 203 °C
3,COc1snc(OCC#CI)c1C#N,159 to 160 °C
4,CCCCCCCC(=O)OC(C)OC1=C(C(=O)Nc2ccccn2)N(C)S(=O)(=O)c2ccccc21 (stereo unspecified),90 to 91 °C
5,CCCCCCCCCCCCC#CCC(NC(C)=O)(C(=O)OCC)C(=O)OCC,43 to 43.5 °C
6,CC(=O)N1CCc2ccc(C(=O)CCCC3CCN(Cc4ccc(F)cc4)CC3)cc2CC1,92 to 94 °C
7,CCOc1nc2ccc(Cl)cc2c(-c2ccccc2)c1NC(=O)Nc1ccc(F)cc1F,238 to 239 °C
8,COC(=O)c1ccccc1-c1n[nH]c(-c2cccc(C(F)(F)F)c2)n1,110 to 112 °C
9,O=C(N[C@H](Cc1ccc(C(F)(F)F)cc1)[C@@H](O)c1ccc(F)cc1)c1cccc2cc3ccccc3cc12 (racemic),227 to 228 °C
10,Cc1cccc(NC(=O)NC2N=C(c3ccccc3F)c3ccccc3N(Cc3ccsc3)C2=O)c1 (racemic),221 to 223 °C
11,OCCOc1nc(N2CCCCC2)c2nc(OCCO)nc(N3CCCCC3)c2n1,148 to 150 °C
12,Cc1cccc(-c2n[nH]cc2-c2ccc(F)c(-c3c[nH]c(C(C)(C)O)n3)c2)n1,135 to 137 °C
13,COC(=O)C1=C(C)NC(C)=C(C(=O)OCCN(C)Cc2ccccc2)C1c1cc([N+](=O)[O-])ccn1 (stereo unspecified),163 °C
14,COC(=O)c1sc(C)cc1C,98 to 101 °C
15,COP(=O)(OC)C1=C(C)NC(C)=C(C(=O)OCCN(C)Cc2ccccc2)C1c1cccc([N+](=O)[O-])c1 (stereo unspecified),101 to 103 °C
16,Cc1nc2ccc(NS(=O)(=O)c3cccc(Cl)c3C)cc2o1,127 to 128 °C
17,Cn1cncc1C(O)(c1ccc(Cl)cc1)c1cc2c3c(c1)c(-c1cccc(Cl)c1)cc(=O)n3CC2 (stereo unspecified),214 °C
18,Cc1cc(C)cc(CN(C)C2CCCn3c2c(-c2ccccc2)c2cc(C)c(C)cc2c3=O)c1 (stereo unspecified),144 to 145 °C
19,CC(C)(C)NCC(O)c1ccc(N)c(F)c1F (stereo unspecified),133 to 135 °C
20,CC(=O)N1C(C)(C)CC(N2CCCCCC2=O)CC1(C)C,104 to 108 °C
21,CC(c1ccc(NC=O)cc1)n1ccnc1 (stereo unspecified),129 °C
22,c1ccc(-n2ncc3c2-c2ccccc2C3)cc1,119 to 120 °C
23,CC(=O)OC1CC2(C)C(C(C)=O)=CCC2C2CCC3=CC(=O)C=CC3(C)C12F (stereo unspecified),202 to 203 °C
24,Cc1cc(Br)cnc1CCCCNc1ncc(Cc2ccc(O)cc2)c(=O)[nH]1,232 to 234 °C

row,Structure (SMILES),melting point
1,O=C1OCc2cccc(CBr)c21,128 to 131 °C
2,Cc1cc(OC(F)(F)C(F)Cl)nc(N)n1 (stereo unspecified),73 to 74 °C
3,N#Cc1nn(-c2c(Cl)cc(OC(F)(F)F)cc2Cl)cc1C(Cl)=C(Cl)Br,143 to 144 °C
4,COc1ccc(S(=O)(=O)Nc2ccccc2/C=C/c2ccncc2)cc1,207 to 209 °C
5,O=C(O)Cc1csc(NC(=O)C(F)(F)F)n1,117 to 120 °C
6,O=S1(=O)NCN(C2CC2)c2c1ccc(F)c2F,160 to 162 °C
7,COc1ccc(N2CCN(C)CC2)cc1-c1cnn2c(N)c(-c3cccc(Cl)c3)c(C)nc12,116 to 121 °C
8,Oc1ccc(Nc2nc(Cl)cc3ccccc23)cc1,170 °C
9,O=S(=O)(N1CCCC1)N1CCN(c2ccnc(CO)n2)CC1,128 to 131 °C
10,Cc1cc(Cl)c(OCCO[Si](C)(C)C(C)(C)C)cc1Nc1nnc2n1[C@H](c1ccc(F)cc1)COC2,141 to 142 °C
11,O=C1CCCN1C(=O)Oc1ccc(Br)cc1,107 to 108 °C
12,COC(=O)C(=C\c1ccc(OC2CCCC2)c(OC)c1)/C(=C\c1ccccc1)C(N)=O,158 to 159 °C
13,COC(=O)CS(=O)CCCCN(c1cnc(-c2ccccc2)c(-c2ccccc2)n1)C(C)C (stereo unspecified),128 to 130 °C
14,OC(Cn1ccnc1)c1cccc2ccccc12 (stereo unspecified),112 to 115 °C
15,O=c1[nH]ncc2ccc(/C=C/c3ccc(O)cc3)cc12,305 to 308 °C
16,CN1Cc2c(C=O)ncn2-c2ccccc2C1=O,202 to 203 °C
17,O=C1c2ccccc2C(Cc2ccncc2)(Cc2ccncc2)C(=O)N1c1ccccc1,> 270 °C
18,O=C1CC(O)CC(C=CC2=C(c3ccc(F)cc3)CC3CCC2C3)O1 (stereo unspecified),123 to 127 °C
19,COc1ccc2cc3c(c(-c4ccc(OC(F)(F)F)cc4)c2c1)C(=O)NC3=O,282 to 284 °C
20,CNC(=O)[C@@H](N[C@@H](C)c1ccccc1)C(C)(C)C,107 to 108 °C
21,CCOC(=O)C(=O)Nc1cc(NC(=O)NC)ccc1O,235 to 236 °C
22,COc1ccc(NCCNC(=O)c2ccc(OCC=C(C)CCC=C(C)C)cc2)nc1,70.8 to 71.7 °C
23,CCOC(=O)CN1CCc2cc3c(cc2CC1)OCO3,89 to 90 °C
